Data reported in PubChem BioAssay AID2060606 (Molecular Pharmacology Branch, DTP, NCI, 2025).

System: 922993-354-T-J3-PDC complex spheroids, viability, % test/control
Test: Anticancer human tumor 922993-354-T-J3-PDC patient-derived endometrial carcinoma cell line growth inhibition [CLK]
Details: for IC50: curve of first compound; for viability, T/C: stronger effect = lower value
Method in brief: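 Multi-cell-type spheroids combined patient-derived tumor cells with HUVEC endothelial cells and human mesenchymal stem cells. Paired agents were dosed in half-log steps down from about clinical Cmax, or from 10 microM where Cmax was unknown.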
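Note: spheroids exposed to the agents for 7 days before readout.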

SMILES: COc1ccc([C@@H](O)c2cc(-c3ncnc4cc(N5CCOCC5)ccc34)c(F)cc2Cl)nn1 + CNC(=O)c1ccc(Nc2nc(OC3CCCC3)c3c(-c4ccc5nc(C)oc5c4)c[nH]c3n2)c(OC)c1
- IC50 (second compound 0.0316 µM): > 10 µM
- IC50 (second compound 0.1 µM): > 10 µM
- IC50 (second compound 0.316 µM): > 10 µM
- IC50 (second compound 1 µM): < 0.0316 µM
- IC50 (second compound 3.16 µM): < 0.0316 µM
- IC50 (second compound 10 µM): < 0.0316 µM
- viability, T/C (second compound 0.0316 µM, first compound 0.0316 µM): 113%
- viability, T/C (second compound 0.0316 µM, first compound 0.1 µM): 112%
- viability, T/C (second compound 0.0316 µM, first compound 0.316 µM): 130%
- viability, T/C (second compound 0.0316 µM, first compound 1 µM): 121%
- viability, T/C (second compound 0.0316 µM, first compound 3.16 µM): 113%
- viability, T/C (second compound 0.0316 µM, first compound 10 µM): 91.2%
- viability, T/C (second compound 0.1 µM, first compound 0.0316 µM): 104%
- viability, T/C (second compound 0.1 µM, first compound 0.1 µM): 110%
- viability, T/C (second compound 0.1 µM, first compound 0.316 µM): 99.7%
- viability, T/C (second compound 0.1 µM, first compound 1 µM): 125%
- viability, T/C (second compound 0.1 µM, first compound 3.16 µM): 104%
- viability, T/C (second compound 0.1 µM, first compound 10 µM): 92.5%
- viability, T/C (second compound 0.316 µM, first compound 0.0316 µM): 64.3%
- viability, T/C (second compound 0.316 µM, first compound 0.1 µM): 64.5%
- viability, T/C (second compound 0.316 µM, first compound 0.316 µM): 66.6%
- viability, T/C (second compound 0.316 µM, first compound 1 µM): 67.8%
- viability, T/C (second compound 0.316 µM, first compound 3.16 µM): 87.1%
- viability, T/C (second compound 0.316 µM, first compound 10 µM): 71.9%
- viability, T/C (second compound 1 µM, first compound 0.0316 µM): 39.3%
- viability, T/C (second compound 1 µM, first compound 0.1 µM): 40.6%
- viability, T/C (second compound 1 µM, first compound 0.316 µM): 40%
- viability, T/C (second compound 1 µM, first compound 1 µM): 40.9%
- viability, T/C (second compound 1 µM, first compound 3.16 µM): 52.1%
- viability, T/C (second compound 1 µM, first compound 10 µM): 56.8%
- viability, T/C (second compound 3.16 µM, first compound 0.0316 µM): 31.8%
- viability, T/C (second compound 3.16 µM, first compound 0.1 µM): 28.8%
- viability, T/C (second compound 3.16 µM, first compound 0.316 µM): 34.8%
- viability, T/C (second compound 3.16 µM, first compound 1 µM): 41.2%
- viability, T/C (second compound 3.16 µM, first compound 3.16 µM): 45.8%
- viability, T/C (second compound 3.16 µM, first compound 10 µM): 41%
- viability, T/C (second compound 10 µM, first compound 0.0316 µM): 34%
- viability, T/C (second compound 10 µM, first compound 0.1 µM): 30.6%
- viability, T/C (second compound 10 µM, first compound 0.316 µM): 41.6%
- viability, T/C (second compound 10 µM, first compound 1 µM): 33.8%
- viability, T/C (second compound 10 µM, first compound 3.16 µM): 44.2%
- viability, T/C (second compound 10 µM, first compound 10 µM): 37.1%
